From PubChem BioAssay (NCI)
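Growth conditions: 96-well plates. Treatment: test compound, 48 hours, 5 concentrations. Analysis: linear interpolation between bracketing concentrations; unreached endpoints set to highest concentration. Definition used: TGI = concentration required for complete inhibition of growth.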

How the values were obtained:
Experiment in all cases: NCI-60 cell line screen, 48 h
NCI-H460 lung = test system: NCI-H460 lung
EKVX NSCLC = test system: EKVX NSCLC
NCI/ADR-RES ovarian = test system: NCI/ADR-RES ovarian
MDA-MB-435 = test system: MDA-MB-435
NCI-H226 lung = test system: NCI-H226 lung
U251 CNS = test system: U251 CNS
SK-MEL-5 melanoma = test system: SK-MEL-5 melanoma
HCC-2998 colon = test system: HCC-2998 colon
A549 NSCLC = test system: A549 NSCLC
T-47D breast = test system: T-47D breast
SNB-75 CNS = test system: SNB-75 CNS
OVCAR-4 ovarian = test system: OVCAR-4 ovarian
SK-MEL-2 melanoma = test system: SK-MEL-2 melanoma
BT-549 breast = test system: BT-549 breast

Compound	TGI (NCI-H460 lung) [µM]	TGI (EKVX NSCLC) [µM]	TGI (NCI/ADR-RES ovarian) [µM]	TGI (MDA-MB-435) [µM]	TGI (NCI-H226 lung) [µM]	TGI (U251 CNS) [µM]	TGI (SK-MEL-5 melanoma) [µM]	TGI (HCC-2998 colon) [µM]	TGI (A549 NSCLC) [µM]	TGI (T-47D breast) [µM]	TGI (SNB-75 CNS) [µM]	TGI (OVCAR-4 ovarian) [µM]	TGI (SK-MEL-2 melanoma) [µM]	TGI (BT-549 breast) [µM]
COc1ccc(/C=C2/CSCC3=C2NC(=S)NC3c2ccc(OC)c(OC)c2OC)c(OC)c1OC (stereo not drawn)	> 100	> 100	32.2	61.4	99.3	> 100	29.8	77.9	95.9	> 100	> 100	74.4	63.6	
N#CCc1c(-c2ccccc2)n(S(=O)(=O)c2ccccc2)c2ccccc12	> 100				> 100	> 100	> 100	> 100	> 100		62	> 100	> 100	
CCOC(=O)CC(c1ccccc1)C(C)(C(=O)OCC)C(=O)OCC (stereo not drawn)	> 100	> 100	> 100		> 100	> 100	> 100	> 100	> 100	> 100	> 100	> 100	> 100	> 100
Clc1cccc(-c2sc(-c3ccsc3)cc2Cc2ccsc2)c1		> 10		> 10			> 10	> 10	> 10	> 10	> 10	> 10		
O=C(/C=C\c1cccc2ccccc12)c1ccc(F)cc1	33.2	35.2			> 100	29.9	33	35.8	81.2		75.3	36.9		
CC(=O)OC(CC1(C)C(C)CCC23COC(=O)C2=CCCC31)c1ccoc1 (stereo not drawn)	> 100	97.6			44.1	29.3	42.1	57.1	> 100		78.5	> 100	49.7	
O=C/C1=C/C2=Cc3ccccc3C=C(/C=C(/C=O)C1)C2	> 100	> 100			> 100	> 100	> 100	> 100	> 100		80	> 100	> 100	
NNC(=O)CC(=O)Nc1cccc(Cl)c1	> 100	> 100		> 100	> 100	> 100	> 100	> 100	> 100	> 100	> 100	> 100	> 100	> 100
S=C(NCCc1ccccn1)N/N=C/c1ccccn1	4.66	> 27.7	> 100	> 100	0.986	> 100	2.69	> 100	7.68	> 100	> 100	> 74.7	9.9	
